The values below come from US10981894B2, “Melanocortin subtype-2 receptor (MC2R) antagonists and uses thereof” (Crinetics Pharmaceuticals, Inc., priority 2018, dated 2021).

Bounds are passed on as bounds.

Chain of hMC2 receptor (Q01718 whole entry): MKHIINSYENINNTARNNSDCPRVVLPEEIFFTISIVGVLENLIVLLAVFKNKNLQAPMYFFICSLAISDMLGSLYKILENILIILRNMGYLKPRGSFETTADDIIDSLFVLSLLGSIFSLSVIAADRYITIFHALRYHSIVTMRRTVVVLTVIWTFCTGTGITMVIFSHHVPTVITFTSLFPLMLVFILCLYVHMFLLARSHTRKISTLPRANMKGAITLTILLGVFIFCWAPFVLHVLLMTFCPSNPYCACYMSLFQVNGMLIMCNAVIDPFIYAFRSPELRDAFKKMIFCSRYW
Chain of hMC2 receptor (Q8TCY5 whole entry partner): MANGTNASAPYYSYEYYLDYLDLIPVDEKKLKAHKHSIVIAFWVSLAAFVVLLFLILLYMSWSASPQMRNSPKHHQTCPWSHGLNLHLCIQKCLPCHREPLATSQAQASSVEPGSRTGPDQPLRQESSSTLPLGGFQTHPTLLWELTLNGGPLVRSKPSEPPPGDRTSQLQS

The assay has as its target hMC2 receptor (Homo sapiens, UniProt Q01718). The assay can be described thus: hMC2 membrane binding assay ([125I]ACTH (1-39) Tyr23, SPA). More on the design: scale not given here. The following applies: crude hMC2R membranes from CRE-bla-CHO-K1 cells expressing hMC2 receptor and hMRAP; [125I]ACTH (1-39) Tyr23 0.2 nM; 1.5 hours at room temperature; read-out: MC2R binding potency. How it is done:
Crude membrane fractions are prepared from CRE-bla-CHO-K1 cells stably expressing hMC2 receptor and hMRAP accessory protein (Thermo Fisher). The cells are grown to 85-100% confluence on standard tissue culture dishes in GlutaMax DMEM growth media (Gibco) with following additives: 10% dialyzed FBS (Gemini), 0.1 mM NEAA (Gibco), 25 mM HEPES (Gibco), 5 μg/mL blasticidin (Goldbio), 100 μg/mL zeocin (Invitrogen), 600 μg/mL hygromycin (Goldbio). To prepare membranes, cells are scraped and collected in 1× Dulbecco's phosphate buffered saline (Corning) and then pelleted at 1000 RPM's. The cell pellet is reconstituted in membrane preparation buffer (20 mM HEPES, 6 mM MgCl2 and 1 mM EGTA, protease inhibitor tablets (Pierce) adjusted to pH 7.4), homogenized using a dounce homogenizer, and the resulting membrane fraction is pelleted by centrifugation at 12,000 RPM's. The membrane pellet is resuspended in membrane preparation buffer, snap freezed and stored at −80° C. for later use.
Binding Assay for hMC2 Antagonists Protocol:
The hMC2 membrane binding assay utilizes the following components: radiolabel [^125I]ACTH (1-39) Tyr23 (PerkinElmer), wheatgerm agglutinin coated PVT SPA beads (PerkinElmer), crude hMC2R membranes, and compounds. Briefly hMC2R membranes are incubated with SPA beads in binding assay buffer (50 mM HEPES, 5 mM MgCl2, 1 mM CaCl2, 0.2% BSA, protease inhibitor tablets (Pierce) adjusted to pH7.4) prior to assay initiation. A dose response of compound (the final concentration of compound are typically 0-10,000 nM), SPA membranes, and [^125I]ACTH (1-39) Tyr23 at a final concentration of 0.2 nM is plated in a 96-well assay plate and allowed to incubate 1.5 hours at room temperature. Assay plates are read using a Top Count NXT and Ki values for compounds are determined using a GraphPad Prism 6 non-linear regression analysis.
For `CCOc1ncccc1-c1ccc(N2CCN(C(=O)O[C@@H](c3ccccc3)C(F)(F)F)C[C@H]2CC)c(C(=O)N[C@@H]2CCNC2)n1` [Compound 1-377, (1S)-2,2,2-trifluoro-1-phenylethyl (3R)-4-(2′-ethoxy-6-{[(3R)-pyrrolidin-3-yl]carbamoyl}-[2,3′-bipyridin]-5-yl)-3-ethylpiperazine-1-carboxylate], the Ki is < 10 nM.

As to `CCOc1ncccc1-c1ccc(N2CCN(C(=O)C3(C(F)(F)F)CCCC3)C[C@H]2CC)c(C(=O)N[C@@H]2CN3CCC2CC3)n1` [Compound 1-400, N-[(3S)-1-azabicyclo[2.2.2]octan-3-yl]-2′-ethoxy-5-[(2R)-2-ethyl-4-[1-(trifluoromethyl)cyclopentanecarbonyl]piperazin-1-yl]-[2,3′-bipyridine]-6-carboxamide], the Ki is < 10 nM. For `CCOc1ncccc1-c1ccc(N2CCN(C(=O)N3CCC[C@H]3C(F)(F)F)C[C@H]2CC)c(C(=O)N[C@@H]2CCNC2)n1` [Compound 1-306, 2′-ethoxy-5-[(2R)-2-ethyl-4-[(2S)-2-(trifluoromethyl)pyrrolidine-1-carbonyl]piperazin-1-yl]-N-[(3R)-pyrrolidin-3-yl]-[2,3′-bipyridine]-6-carboxamide], the Ki was < 10 nM.

`CCOc1ccc(C(=O)N2CCN(c3ccc(-c4cccnc4OCC)nc3CN)[C@H](CC)C2)c(C(F)(F)F)c1` [Compound 2-25, 1-{2′-ethoxy-5-[(2R)-4-[4-ethoxy-2-(trifluoromethyl)benzoyl]-2-ethylpiperazin-1-yl]-[2,3′-bipyridin]-6-yl}methanamine]: the Ki is < 10 nM. As to `CCOc1ccccc1-c1ccc(N2CCN(C(=O)n3ccc4cccc(C(F)(F)F)c43)C[C@H]2CC)c(C(=O)N[C@@H]2CCN(C)C2)n1` [Compound 1-437, 6-(2-ethoxyphenyl)-3-[(2R)-2-ethyl-4-[7-(trifluoromethyl)-1H-indole-1l-carbonyl]piperazin-1-yl]-N-[(3R)-1-methylpyrrolidin-3-yl]pyridine-2-carboxamide], the Ki is < 10 nM. For `CCOc1ncccc1-c1ccc(N2CCN(C(=O)C3(C(F)F)CCCC3)C[C@H]2CC)c(C(=O)N[C@@H]2CCN(C)C2)n1` [Compound 1-416, 5-[(2R)-4-[1-(difluoromethyl)cyclopentanecarbonyl]-2-ethylpiperazin-1-yl]-2′-ethoxy-N-[(3R)-1-methylpyrrolidin-3-yl]-[2,3′-bipyridine]-6-carboxamide] the value was < 10 nM. As for `CCOc1ccccc1-c1ccc(N2CCN(C(=O)c3ccc(Cl)cc3C(F)(F)F)C[C@H]2CC)c(C(=O)NC2CN(C)C2)n1` [Compound 1-221, 3-[(2R)-4-[4-chloro-2-(trifluoromethyl)benzoyl]-2-ethylpiperazin-1-yl]-6-(2-ethoxyphenyl)-N-(1-methylazetidin-3-yl)pyridine-2-carboxamide], the figure is < 10 nM; as for `CCOc1ccc(C(=O)N2CCN(c3ccc(-c4cccnc4OCC)c(F)c3C(=O)NCCNC)[C@H](CC)C2)c(C(F)(F)F)n1` [Compound 1-165, 6-[(2R)-4-[6-ethoxy-2-(trifluoromethyl)pyridine-3-carbonyl]-2-ethylpiperazin-1-yl]-3-(2-ethoxypyridin-3-yl)-2-fluoro-N-[2-(methylamino)ethyl]benzamide], < 10 nM; as for `CCOc1ncccc1-c1ccc(N2CCN(C(=O)c3ccc(Cl)cc3C(F)(F)F)C[C@H]2CC)c(C(=O)NCC2CN(C)C2)n1` [Compound 1-223, 5-[(2R)-4-[4-chloro-2-(trifluoromethyl)benzoyl]-2-ethylpiperazin-1-yl]-2′-ethoxy-N-[(1-methylazetidin-3-yl)methyl]-[2,3′-bipyridine]-6-carboxamide], < 10 nM. For the molecule `CCOc1ccccc1-c1ccc(N2CCN(C(=O)N3CCCC[C@H]3C(F)(F)F)C[C@H]2CC)c(C(=O)N[C@@H]2CCN(C)C2)n1` [Compound 1-433, 6-(2-ethoxyphenyl)-3-[(2R)-2-ethyl-4-[(2S)-2-(trifluoromethyl)piperidine-1-carbonyl]piperazin-1-yl]-N-[(3R)-1-methylpyrrolidin-3-yl]pyridine-2-carboxamide], the Ki is < 10 nM. As for `CCOc1ncccc1-c1ccc(N2CCN(C(=O)N3CCCC3(C)C(F)(F)F)C[C@H]2CC)c(C(=O)N[C@@H]2CCNC2)n1` (stereo partly drawn) [Compound 1-326, 2′-ethoxy-5-[(2R)-2-ethyl-4-[2-methyl-2-(trifluoromethyl)pyrrolidine-1-carbonyl]piperazin-1-yl]-N-[(3R)-pyrrolidin-3-yl]-[2,3′-bipyridine]-6-carboxamide], the figure is < 10 nM; as for `CCOc1ccc(C(=O)N2CCN(c3ccc(-c4cccnc4OCC)nc3C(=O)NC[C@@H]3CCN3C)[C@H](CC)C2)c(C(F)(F)F)n1` [Compound 1-257, 2′-ethoxy-5-[(2R)-4-[6-ethoxy-2-(trifluoromethyl)pyridine-3-carbonyl]-2-ethylpiperazin-1-yl]-N-{[(2S)-1-methylazetidin-2-yl]methyl}-[2,3′-bipyridine]-6-carboxamide], < 10 nM; as for `CCOc1ncccc1-c1ccc(N2CCN(C(=O)c3ccc(Cl)cc3C(F)(F)F)C[C@H]2CC)c(C(=O)NCCN2CC(F)C2)n1` [Compound 1-357, 5-[(2R)-4-[4-chloro-2-(trifluoromethyl)benzoyl]-2-ethylpiperazin-1-yl]-2′-ethoxy-N-[2-(3-fluoroazetidin-1-yl)ethyl]-[2,3′-bipyridine]-6-carboxamide], < 10 nM.

For the molecule `CCOc1ncccc1-c1ccc(N2CCN(C(=O)OC(C(C)(C)C)C(F)(F)F)C[C@H]2CC)c(C(=O)N[C@@H]2CCNC2)n1` (single isomer, unassigned) [Compound 1-367, (2S*)-1,1,1-trifluoro-3,3-dimethylbutan-2-yl (3R)-4-(2′-ethoxy-6-{[(3R)-pyrrolidin-3-yl]carbamoyl}-[2,3′-bipyridin]-5-yl)-3-ethylpiperazine-1-carboxylate], the Ki is < 10 nM.

As for `CCOc1ncccc1-c1ccc(N2CCN(C(=O)C3C4CC5CC(C4)CC3C5)C[C@H]2CC)c(C(=O)NC2CN(C)C2)n1` (stereo partly drawn) [Compound 1-238, 5-[(2R)-4-(adamantane-2-carbonyl)-2-ethylpiperazin-1-yl]-2′-ethoxy-N-(1-methylazetidin-3-yl)-[2,3′-bipyridine]-6-carboxamide], the Ki was < 10 nM. For `CCOc1ncccc1-c1ccc(N2CCN(C(=O)c3ccc(Cl)cc3Cl)C[C@H]2CC)c(C(=O)N[C@@H]2CCNC2)n1` [Compound 1-267, 5-[(2R)-4-(2,4-dichlorobenzoyl)-2-ethylpiperazin-1-yl]-2′-ethoxy-N-[(3R)-pyrrolidin-3-yl]-[2,3′-bipyridine]-6-carboxamide] the value was < 10 nM; for `CC[C@@H]1CN(C(=O)c2ccc(C(F)(F)F)cc2Cl)CCN1c1ccc(-c2ccccc2C#N)cc1C(=O)NCCN` [Compound 1-7, N-(2-aminoethyl)-4-[(2R)-4-[2-chloro-4-(trifluoromethyl)benzoyl]-2-ethylpiperazin-1-yl]-2′-cyano-[1,1′-biphenyl]-3-carboxamide], 10 to 100 nM. For `CCOc1ccccc1-c1ccc(N2CCN(C(=O)c3ccc(Cl)cc3C(F)(F)F)C[C@H]2CC)c(C(=O)NCCN)c1` [Compound 1-25, N-(2-aminoethyl)-4-[(2R)-4-[4-chloro-2-(trifluoromethyl)benzoyl]-2-ethylpiperazin-1-yl]-2′-ethoxy-[1,1′-biphenyl]-3-carboxamide] the value was < 10 nM.
